Experiments:
Conditions in all cases: 48 h
P12-Ichikawa [1] = experiment: cell viability relative to DMSO control; higher = less cytotoxic
Outline: (§1)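 Library compounds in DMSO were pin-dosed in an 11-point threefold series (47 μM to 0.79 nM) onto leukemia cells in 1536-well plates (5 μl). Plates held 500 cells/well of NOMO1 or SEM or 1000 cells/well of P12-Ichikawa, each adapted for at least four passages in each medium. Luminescence was read with CellTiter-Glo One after 48 h at 37°C. Viability means the per-plate percentage relative to DMSO wells, using cell-free wells as background.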

SEM cells [2] = experiment: as above
Outline: as §1

NOMO1 [3] = experiment: AUC of viability dose-response curve (% viability x log10 dose units); higher = less sensitive
Outline: (§2)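 Leukemia cells adapted to each medium were seeded in 1536-well plates (500 or 1000 cells/well). They were dosed with library compounds in DMSO at 11 threefold doses, 47 μM to 0.79 nM, for 48 h at 37°C. CellTiter-Glo One luminescence was normalised per plate to DMSO and cell-free wells. Area under the curve was integrated by trapezoidal rule over log10 doses on a four-parameter log-logistic fit; curves exceeding full viability were scaled and curves failing quality control removed.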

P12-Ichikawa [4] = experiment: as above
Outline: as §2

SEM cells [5] = experiment: as above
Outline: as §2

NOMO1 [6] = experiment: cell viability relative to DMSO control; higher = less cytotoxic
Outline: as §1

CC(C)(Cc1ccc2ccccc2c1)NC[C@@H](O)COc1cccc(Cl)c1C#N
cell viability [%]
Conditions	P12-Ichikawa [1]	SEM cells [2]
HPLM + 10% dialyzed FBS, 0.000781 µM	123	128
HPLM + 10% dialyzed FBS, 0.00234 µM	124	121
HPLM + 10% dialyzed FBS, 0.00702 µM	126	125
HPLM + 10% dialyzed FBS, 0.0211 µM	122	121
HPLM + 10% dialyzed FBS, 0.0632 µM	121	124
HPLM + 10% dialyzed FBS, 0.19 µM	120	123
HPLM + 10% dialyzed FBS, 0.569 µM	123	119
HPLM + 10% dialyzed FBS, 1.71 µM	116	120
HPLM + 10% dialyzed FBS, 5.12 µM	123	108
HPLM + 10% dialyzed FBS, 15.4 µM	117	96.7
HPLM + 10% dialyzed FBS, 46.1 µM	10.7	65.7
RPMI 5 mM glucose + 10% FBS, 0.000781 µM	–	127
RPMI 5 mM glucose + 10% FBS, 0.00234 µM	–	113
RPMI 5 mM glucose + 10% FBS, 0.00702 µM	–	120
RPMI 5 mM glucose + 10% FBS, 0.0211 µM	–	116
RPMI 5 mM glucose + 10% FBS, 0.0632 µM	–	124
RPMI 5 mM glucose + 10% FBS, 0.19 µM	–	121
RPMI 5 mM glucose + 10% FBS, 0.569 µM	–	115
RPMI 5 mM glucose + 10% FBS, 1.71 µM	–	126
RPMI 5 mM glucose + 10% FBS, 5.12 µM	–	86
RPMI 5 mM glucose + 10% FBS, 15.4 µM	–	128
RPMI 5 mM glucose + 10% FBS, 46.1 µM	–	62.8

AUC of viability dose-response curve
Conditions	NOMO1 [3]	P12-Ichikawa [4]	SEM cells [5]
HPLM + 10% dialyzed FBS	458	453	448
RPMI 5 mM glucose + 10% FBS	455	449	466
RPMI 5 mM glucose + 10% dialyzed FBS	451	451	438

COC(=O)C/1=C/O[C@@H](O)[C@H]\2[C@@H]1C\C=C2CO
SEM cells [2], HPLM + 10% dialyzed FBS
Conditions	cell viability [%]
0.000781 µM	98.6
0.00234 µM	116
0.00702 µM	101
0.0211 µM	114
0.0632 µM	138
0.19 µM	114
0.569 µM	126
1.71 µM	112
5.12 µM	112
15.4 µM	104
46.1 µM	76.9

AUC of viability dose-response curve
Conditions	NOMO1 [3]	P12-Ichikawa [4]	SEM cells [5]
HPLM + 10% dialyzed FBS	472	469	465
RPMI 5 mM glucose + 10% FBS	461	466	462
RPMI 5 mM glucose + 10% dialyzed FBS	467	466	454

CC1(C)S[C@H]2[C@H](NC(=O)[C@@H](N)C3=CC=C(O)C=C3)C(=O)[N@]2[C@H]1C(O)=O
AUC of viability dose-response curve
Conditions	NOMO1 [3]	P12-Ichikawa [4]	SEM cells [5]
HPLM + 10% dialyzed FBS	383	394	456
RPMI 5 mM glucose + 10% FBS	394	394	441
RPMI 5 mM glucose + 10% dialyzed FBS	393	383	461

CCC1=C2C=C(OC(=O)N3CCC(CC3)N4CCCCC4)C=CC2=NC\5=C1CN6C(=O)\C7=C(/C=C56)[C@@](O)(CC)C(=O)OC7
SEM cells [2], RPMI 5 mM glucose + 10% FBS
Conditions	cell viability [%]
0.000781 µM	110
0.00234 µM	127
0.00702 µM	104
0.0211 µM	106
0.0632 µM	49.5
0.19 µM	104
0.569 µM	107
1.71 µM	65.2
5.12 µM	15.4
15.4 µM	13.1
46.1 µM	9.69

AUC of viability dose-response curve
Conditions	NOMO1 [3]	P12-Ichikawa [4]	SEM cells [5]
HPLM + 10% dialyzed FBS	380	324	366
RPMI 5 mM glucose + 10% FBS	380	313	356
RPMI 5 mM glucose + 10% dialyzed FBS	380	326	353

C[C@H]([C@H]1C\C(=C(CO)/C(=O)O1)C)[C@H]2CC[C@H]3[C@@H]4C[C@H]5O[C@]56[C@@H](O)\C=C/C(=O)[C@]6(C)[C@H]4CC[C@]23C
Conditions	cell viability [%]
NOMO1 [6], RPMI 5 mM glucose + 10% FBS, 0.000781 µM	133
NOMO1 [6], RPMI 5 mM glucose + 10% FBS, 0.00234 µM	123
NOMO1 [6], RPMI 5 mM glucose + 10% FBS, 0.00702 µM	122
NOMO1 [6], RPMI 5 mM glucose + 10% FBS, 0.0211 µM	128
NOMO1 [6], RPMI 5 mM glucose + 10% FBS, 0.0632 µM	119
NOMO1 [6], RPMI 5 mM glucose + 10% FBS, 0.19 µM	115
NOMO1 [6], RPMI 5 mM glucose + 10% FBS, 0.569 µM	28.6
NOMO1 [6], RPMI 5 mM glucose + 10% FBS, 1.71 µM	20.5
NOMO1 [6], RPMI 5 mM glucose + 10% FBS, 5.12 µM	9.85
NOMO1 [6], RPMI 5 mM glucose + 10% FBS, 15.4 µM	6.35
NOMO1 [6], RPMI 5 mM glucose + 10% FBS, 46.1 µM	3.75
P12-Ichikawa [1], HPLM + 10% dialyzed FBS, 0.000781 µM	126
P12-Ichikawa [1], HPLM + 10% dialyzed FBS, 0.00234 µM	124
P12-Ichikawa [1], HPLM + 10% dialyzed FBS, 0.00702 µM	123
P12-Ichikawa [1], HPLM + 10% dialyzed FBS, 0.0211 µM	129
P12-Ichikawa [1], HPLM + 10% dialyzed FBS, 0.0632 µM	121
P12-Ichikawa [1], HPLM + 10% dialyzed FBS, 0.19 µM	100
P12-Ichikawa [1], HPLM + 10% dialyzed FBS, 0.569 µM	11.3
P12-Ichikawa [1], HPLM + 10% dialyzed FBS, 1.71 µM	7.84
P12-Ichikawa [1], HPLM + 10% dialyzed FBS, 5.12 µM	5.43
P12-Ichikawa [1], HPLM + 10% dialyzed FBS, 15.4 µM	3.44
P12-Ichikawa [1], HPLM + 10% dialyzed FBS, 46.1 µM	1.95

AUC of viability dose-response curve
Conditions	NOMO1 [3]	P12-Ichikawa [4]	SEM cells [5]
HPLM + 10% dialyzed FBS	271	263	259
RPMI 5 mM glucose + 10% FBS	283	258	253
RPMI 5 mM glucose + 10% dialyzed FBS	286	261	260

CCC(c1ccc(O)cc1)C(CC)c1ccc(O)cc1 (centres undefined)
AUC of viability dose-response curve
Conditions	NOMO1 [3]	P12-Ichikawa [4]	SEM cells [5]
HPLM + 10% dialyzed FBS	428	452	459
RPMI 5 mM glucose + 10% FBS	448	464	457
RPMI 5 mM glucose + 10% dialyzed FBS	463	466	466

CN1CCN(c2cccc(Nc3nc4c(-c5ccc([S+](C)(=O)[O-])cc5)cccn4n3)c2)CC1
AUC of viability dose-response curve
Conditions	NOMO1 [3]	P12-Ichikawa [4]	SEM cells [5]
HPLM + 10% dialyzed FBS	438	453	379
RPMI 5 mM glucose + 10% FBS	449	427	375
RPMI 5 mM glucose + 10% dialyzed FBS	450	435	372

Cc1ccccc1C(C(=O)NC1CCCCC1)N(C(=O)CNc1ccc(C#N)cc1)c1cccc(F)c1 (centres undefined)
cell viability [%]
Conditions	NOMO1 [6]	P12-Ichikawa [1]	SEM cells [2]
HPLM + 10% dialyzed FBS, 0.000781 µM	103	111	88.7
HPLM + 10% dialyzed FBS, 0.00234 µM	111	113	116
HPLM + 10% dialyzed FBS, 0.00702 µM	115	107	119
HPLM + 10% dialyzed FBS, 0.0211 µM	106	105	121
HPLM + 10% dialyzed FBS, 0.0632 µM	98.3	114	124
HPLM + 10% dialyzed FBS, 0.19 µM	111	103	118
HPLM + 10% dialyzed FBS, 0.569 µM	112	106	118
HPLM + 10% dialyzed FBS, 1.71 µM	99.4	104	105
HPLM + 10% dialyzed FBS, 5.12 µM	114	102	118
HPLM + 10% dialyzed FBS, 15.4 µM	84.2	104	103
HPLM + 10% dialyzed FBS, 46.1 µM	82.8	99.2	111
RPMI 5 mM glucose + 10% FBS, 0.000781 µM	77.2	73.9	113
RPMI 5 mM glucose + 10% FBS, 0.00234 µM	88.5	104	118
RPMI 5 mM glucose + 10% FBS, 0.00702 µM	94.5	110	105
RPMI 5 mM glucose + 10% FBS, 0.0211 µM	87.7	112	106
RPMI 5 mM glucose + 10% FBS, 0.0632 µM	103	112	105
RPMI 5 mM glucose + 10% FBS, 0.19 µM	94	102	119
RPMI 5 mM glucose + 10% FBS, 0.569 µM	93.7	102	103
RPMI 5 mM glucose + 10% FBS, 1.71 µM	100	102	96.9
RPMI 5 mM glucose + 10% FBS, 5.12 µM	89.6	99	95
RPMI 5 mM glucose + 10% FBS, 15.4 µM	90.1	95.6	93.4
RPMI 5 mM glucose + 10% FBS, 46.1 µM	87.3	94.6	106
RPMI 5 mM glucose + 10% dialyzed FBS, 0.000781 µM	71.9	64.4	85
RPMI 5 mM glucose + 10% dialyzed FBS, 0.00234 µM	110	110	107
RPMI 5 mM glucose + 10% dialyzed FBS, 0.00702 µM	140	110	119
RPMI 5 mM glucose + 10% dialyzed FBS, 0.0211 µM	142	112	95.4
RPMI 5 mM glucose + 10% dialyzed FBS, 0.0632 µM	98.5	104	97
RPMI 5 mM glucose + 10% dialyzed FBS, 0.19 µM	84.7	92.7	103
RPMI 5 mM glucose + 10% dialyzed FBS, 0.569 µM	88.2	103	91.6
RPMI 5 mM glucose + 10% dialyzed FBS, 1.71 µM	70.1	92.5	108
RPMI 5 mM glucose + 10% dialyzed FBS, 5.12 µM	80.3	91.3	97.6
RPMI 5 mM glucose + 10% dialyzed FBS, 15.4 µM	97	98.8	101
RPMI 5 mM glucose + 10% dialyzed FBS, 46.1 µM	76.9	98.6	89.5

AUC of viability dose-response curve
Conditions	HPLM + 10% dialyzed FBS	RPMI 5 mM glucose + 10% FBS	RPMI 5 mM glucose + 10% dialyzed FBS
P12-Ichikawa [4]	453	476	467
SEM cells [5]	471	454	470

CN[C@@H]1CN(C[C@H]1OC)C2=NC3=C(C=C2)C(=O)C(=C\N3C4=NC=CS4)/C(O)=O
AUC of viability dose-response curve
Conditions	NOMO1 [3]	P12-Ichikawa [4]	SEM cells [5]
HPLM + 10% dialyzed FBS	454	426	396
RPMI 5 mM glucose + 10% FBS	455	386	347
RPMI 5 mM glucose + 10% dialyzed FBS	451	389	363

— the supplement of paper PMC11451515
